Test results published in patent publication US20250154525A1, “PLANT VIRUS MOVEMENT PROTEINS AND METHODS OF USING SAME” (Molecular Transfer, Inc., priority 2016, published 2025).

What was measured:
HeLa Cells [1] = assay: GFP plasmid transfection with DOTMA/DOPE plus surface ligand peptide, fluorescent plate reader (Example 1); assay type: cell-based; conditions: DOTMA/DOPE + peptide linked to R12 or K16; EF1Alpha eGFP plasmid; 42 hours
HuVec Cells = assay: as above; assay type: cell-based; conditions: DOTMA/DOPE + peptide linked to R12 or K16; EF1Alpha eGFP plasmid; 42 hours
Summary of the method: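 HuVEC cells in 96 well plates at 70% confluence were transfected with EF1Alpha eGFP plasmid using a 1:1 molar DOTMA/DOPE lipid mixed with a surface ligand peptide carrying a covalently attached nucleic acid binding moiety. Complexes formed for 10 minutes, 0.01 mL went to each well, cells were incubated 42 hours at 37° C., and fluorescence was read on a plate reader.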

Human Fibroblast Cells = assay: as above; assay type: cell-based; conditions: DOTMA/DOPE + peptide linked to R12 or K16; EF1Alpha eGFP plasmid; 42 hours
Summary of the method: (§1)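 DOTMA/DOPE (1:1 molar) plus peptide bearing a poly-Arg or poly-Lys tag was complexed 10 min with EF1alpha eGFP plasmid in OptiMEM, then added to 70%-confluent cells (0.01 mL fibroblasts; 0.02 mL C2C12, Jurkat). After 42 h at 37 °C, GFP was read by plate reader and compared with DOTMA without ligand.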

Jurkat Cells = assay: as above; assay type: cell-based; conditions: DOTMA/DOPE + peptide linked to R12 or K16; EF1Alpha eGFP plasmid; 42 hours
Summary of the method: as §1

NL-1 iPS Cells = assay: as above; assay type: cell-based; conditions: DOTMA/DOPE + peptide linked to R12 or K16; EF1Alpha eGFP plasmid; 42 hours
C2C12 Cells = assay: as above; assay type: cell-based, mouse; conditions: DOTMA/DOPE + peptide linked to R12 or K16; EF1Alpha eGFP plasmid; 42 hours
Summary of the method: as §1

HeLa Cells [2] = assay: GFP transfection with DOTMA/SEQ ID NO: 72 (fusogenic peptide)/peptide compared with Lipofectamine 2000; assay type: cell-based
Summary of the method: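 DOTMA/DOPE (1:1 molar) lipid mixed with polyarginine- or polylysine-tagged cell-surface-ligand peptide, complexed 10 min with EF1alpha eGFP plasmid at 10 μg/mL in OptiMEM, fusogenic peptide at 0.1 mg/mL final; HeLa cells ~70% confluent given 0.01 mL complex. GFP read by fluorescence plate reader and microscopy (% cells transfected) after 42 h at 37° C; Lipofectamine 2000 as comparator.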

some examined cell types = assay: Summary of Example 1: transfection expression and % cells transfected over the no peptide control; assay type: cell-based; conditions: on some examined cell types
Summary of the method: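 Cells at 70% confluence received DNA complexes of EF1Alpha eGFP plasmid with DOTMA/DOPE (1:1) plus oligo-Arg- or oligo-Lys-tagged peptide ligands, formed 10 min at room temperature. After 42 h at 37 °C, 5% CO2, GFP read by plate reader and % transfected cells judged microscopically, relative to lipid without peptide.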

[3] = 0.1 μL of DOTMA/SEQ ID NO: 72/Peptide in well of a 96 well plate
[4] = 0.2 μL of DOTMA/SEQ ID NO: 72/Peptide in well of a 96 well plate
[5] = 0.3 μL of DOTMA/SEQ ID NO: 72/Peptide in well of a 96 well plate
[6] = 0.4 μL of DOTMA/SEQ ID NO: 72/Peptide in well of a 96 well plate

| Substance | Relative Fluorescence of Transfection of HeLa Cells (RF) (HeLa Cells [1]) | Relative Fluorescence of Transfection of HuVec Cells (RF) (HuVec Cells) | Relative Fluorescence of Transfection of Human Fibroblast Cells (RF) (Human Fibroblast Cells) | Relative Fluorescence of Transfection of Jurkat Cells (RF) (Jurkat Cells) | Relative Fluorescence of Transfection of NL-1 iPS Cells (RF) (NL-1 iPS Cells) | Relative Fluorescence of Transfection of C2C12 Cells (RF) (C2C12 Cells) | Relative Fluorescence DOTMA/SEQ ID NO: 72/Peptide, HeLa Cells (RF) (HeLa Cells [2]; [3]) | Relative Fluorescence DOTMA/SEQ ID NO: 72/Peptide, HeLa Cells (RF) (HeLa Cells [2]; [4]) | Relative Fluorescence DOTMA/SEQ ID NO: 72/Peptide, HeLa Cells (RF) (HeLa Cells [2]; [5]) | Relative Fluorescence DOTMA/SEQ ID NO: 72/Peptide, HeLa Cells (RF) (HeLa Cells [2]; [6]) | transfection expression and % cells transfected over the no peptide control (some examined cell types) |
| --- | --- | --- | --- | --- | --- | --- | --- | --- | --- | --- | --- |
| 344 (KGHRGF) [compound 344] | 14415 | 11867 | 12704 | 10160 | 10895 | 1678 | 13315 | 16387 | 12564 | 12511 | increased transfection expression and the % cells transfected |
| 357 (SETTVKYIFRLHE) [compound 357] | 22679 | 6009 | 7167 | 2256 | 15624 | 4506 | 7718 | 11798 | 9229 | 9107 | increased transfection expression and the % cells transfected |
| 351 (LNRQELFPFG) [compound 351] | 12279 | 15379 | 8061 | 9730 | 24646 | 3530 | 7678 | 11499 | 10575 | 8791 | increased transfection expression and the % cells transfected |
| 452 (CNYYSNSYSFWLASLNPER) [compound 452] | 13888 | 1841 | 2779 | 2554 | 10349 | 21798 | 6276 | 12671 | 12047 | 10918 | increased transfection expression and the % cells transfected |
| 454 (TGLSCLQRFTTM) [compound 454] | 34550 | 13336 | 7568 | 8224 | 18100 | 9280 | 34033 | 37099 | 27412 | 16023 | increased transfection expression and the % cells transfected |
| 347 (DLGTAGSCLRKFSTM) [compound 347] | 22527 | 20728 | 9255 | 17720 | 21865 | 4457 | 23188 | 21493 | 16814 | 14140 | increased transfection expression and the % cells transfected |
| 342 (TAGSCLRKFSTM) [compound 342] | 33666 | 12804 | 9525 | 12825 | 11493 | 9496 | 41299 | 36040 | 28841 | 18351 | increased transfection expression and the % cells transfected |
| 379 (TAGSCLRKF) [compound 379] | 27424 | 14573 | 8520 | 7711 | 6894 | 3189 | 50018 | 47049 | 39036 | 26448 | increased transfection expression and the % cells transfected |
| 360 (GDLGRPGRKGRPGPP) [compound 360] | 8516 | 24042 | 5347 | 16607 | 27572 | 2090 | 9946 | 11168 | 10381 | 8995 | increased transfection expression and the % cells transfected |
| 369 (TAIPSCPEGTVPLYS) [compound 369] | 14444 | 6536 | 7590 | 11085 | 13124 | 3322 | 8737 | 16706 | 14880 | 12645 | increased transfection expression and the % cells transfected |
| 268 (GGFLKYTVSYDI) [compound 268] | 25885 | 5403 | 4568 | 3236 | 15697 | 2568 | 10162 | 9934 | 10792 | 9519 | increased transfection expression and the % cells transfected |
| 377 (TAGSCLRRFSTM) [compound 377] | 15091 | 9326 | 6638 | 6785 | 5474 | 1710 | 39115 | 40072 | 32914 | 22457 | increased transfection expression and the % cells transfected |
